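In this assay, cells in 96-well plates receive the compound at five concentrations for 48 hours. Endpoints are linearly interpolated between the surrounding concentrations. GI50: concentration for 50% inhibition of growth. TGI is the concentration that stops growth completely.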 Some results are limits rather than exact numbers.

Some test systems named below: CCRF-CEM leukemia; EKVX NSCLC; HOP-62 NSCLC; HOP-92 NSCLC; HT29 colon; K-562 leukemia; OVCAR-3 ovarian; RXF 393 renal; SW-620 colon; UACC-257 melanoma.
Holding throughout (assay): NCI anticancer screen, dose series, 48 h

For `C/C(=N/NC(N)=S)c1ccc[nH]1`, the TGI with CCRF-CEM leukemia, in the test with EKVX NSCLC, in the test with HOP-62 NSCLC, in the test on HOP-92 NSCLC, with HT29 colon and in the test with K-562 leukemia was greater than 100 µM each time. The TGI with OVCAR-3 ovarian, in the test with RXF 393 renal, with SW-620 colon and in the test on UACC-257 melanoma was greater than 100 µM each time.

For `C[C@@H]1Nc2cc(NC(=O)OCCF)nc(N)c2N=C1c1ccccc1`, the TGI with HOP-92 NSCLC was greater than 100 µM; in the test on K-562 leukemia, less than 0.0001 µM; with OVCAR-3 ovarian it was less than 0.0001 µM; with RXF 393 renal it was greater than 100 µM; with SW-620 colon, greater than 100 µM; with UACC-257 melanoma, greater than 100 µM.

Take `CC(=O)Nc1ccc(/C=C/c2ccc(NC(=O)Nc3ccc(/C=C/c4ccc(NC(C)=O)cc4S(=O)(=O)O)c(S(=O)(=O)O)c3)cc2S(=O)(=O)O)c(S(=O)(=O)O)c1`: the TGI in the test on CCRF-CEM leukemia is greater than 100 µM; in the test with EKVX NSCLC, greater than 100 µM; in the test with HOP-62 NSCLC, greater than 100 µM; in the test with HOP-92 NSCLC, greater than 75.6 µM; in the test on HT29 colon, greater than 100 µM; in the test with K-562 leukemia, greater than 100 µM. Further, the TGI in the test with OVCAR-3 ovarian, in the test on RXF 393 renal, with SW-620 colon and with UACC-257 melanoma was greater than 100 µM each time.

Regarding `COCc1nc2c(OC)c(-c3nc4nc(N5CCN(C)CC5)ccc4[nH]3)cc(OC)c2n1C`, the TGI in the test with CCRF-CEM leukemia is 45.6 µM; in the test on EKVX NSCLC it was 81.2 µM; in the test with HOP-62 NSCLC, greater than 100 µM; in the test on HOP-92 NSCLC, greater than 100 µM; in the test with HT29 colon, 62 µM; with K-562 leukemia it was greater than 100 µM. For the same compound, the TGI with OVCAR-3 ovarian is greater than 100 µM; in the test on RXF 393 renal, 57.6 µM; in the test with SW-620 colon, greater than 100 µM; in the test with UACC-257 melanoma it was 36.4 µM.

For the compound `CCOP(=O)(OCC)C(c1ccc(F)cc1)N(C(=O)NC(F)(F)F)c1cccc(C(F)(F)F)c1` (centres undefined), the TGI in the test on CCRF-CEM leukemia is greater than 100 µM; in the test with EKVX NSCLC it was greater than 100 µM; in the test with HOP-62 NSCLC, greater than 100 µM; with HOP-92 NSCLC, 98.6 µM; with HT29 colon it was greater than 100 µM; in the test on K-562 leukemia it was greater than 100 µM. In addition, the TGI with OVCAR-3 ovarian, with RXF 393 renal, in the test with SW-620 colon and in the test with UACC-257 melanoma was greater than 100 µM each time.

As for `CCC(C)NC1=NCC(C)S1` (centres undefined), the TGI with CCRF-CEM leukemia, with EKVX NSCLC, with HOP-62 NSCLC, in the test with HOP-92 NSCLC, in the test with HT29 colon and in the test on K-562 leukemia was greater than 100 µM each time. Further, the TGI with OVCAR-3 ovarian, with RXF 393 renal, with SW-620 colon and with UACC-257 melanoma was greater than 100 µM throughout.

Turning to `CN=C(SC)N(C)c1nc(=[N+](C)C)ss1`, the TGI is greater than 100 µM with CCRF-CEM leukemia; greater than 100 µM with EKVX NSCLC; greater than 100 µM with HOP-62 NSCLC; greater than 100 µM with HOP-92 NSCLC; greater than 100 µM in the test with HT29 colon; 69 µM in the test on K-562 leukemia. The TGI in the test on RXF 393 renal, in the test with SW-620 colon and in the test with UACC-257 melanoma was greater than 100 µM in each case.

In the case of `COc1ccccc1CNCCCN1C(=O)c2ccc3c4c(ccc(c24)C1=O)C(=O)N(CCCNCCNCCCN)C3=O`, the GI50 in the test on CCRF-CEM leukemia was 3.17 µM; in the test on EKVX NSCLC, 4.17 µM; in the test on HOP-62 NSCLC it was 2.46 µM; in the test on HOP-92 NSCLC, 6.7 µM; in the test on HT29 colon it was 2.07 µM; in the test on K-562 leukemia, 3.24 µM. In addition, the GI50 in the test on OVCAR-3 ovarian is 2.16 µM; in the test with RXF 393 renal it was 1.65 µM; in the test with SW-620 colon, 1.74 µM; in the test with UACC-257 melanoma, 2.53 µM. Besides, the TGI in the test on CCRF-CEM leukemia came to 56.8 µM; with EKVX NSCLC it was 16.3 µM; in the test with HOP-62 NSCLC it was 14.2 µM; with HOP-92 NSCLC, 38.8 µM; with HT29 colon it was 11 µM; in the test with K-562 leukemia it was 16.7 µM. The TGI in the test with OVCAR-3 ovarian turned out to be 5.65 µM; in the test with RXF 393 renal it was 7.12 µM; in the test with SW-620 colon, 8.91 µM; in the test with UACC-257 melanoma, 7.96 µM.

`CCOC(=O)Cn1c(=O)ccn(COCCO)c1=O`: the TGI in the test with CCRF-CEM leukemia, with EKVX NSCLC, in the test on HOP-62 NSCLC, with HOP-92 NSCLC, in the test on HT29 colon and in the test on K-562 leukemia was greater than 100 µM throughout. For the same compound, the TGI in the test with OVCAR-3 ovarian, with RXF 393 renal, in the test on SW-620 colon and in the test with UACC-257 melanoma was greater than 100 µM throughout.

For the compound `CC1CC2=C(S(=O)(=O)c3ccccc3)CC(S(=O)(=O)c3ccccc3)(S(=O)(=O)c3ccccc3)CC21` (centres undefined), the TGI in the test with CCRF-CEM leukemia, in the test with EKVX NSCLC, with HOP-62 NSCLC, with HT29 colon, in the test on K-562 leukemia and in the test on OVCAR-3 ovarian was greater than 100 µM each time. The TGI in the test on RXF 393 renal, in the test with SW-620 colon and with UACC-257 melanoma was greater than 100 µM throughout.

On to `COc1cc2oc(-c3ccc(O)cc3)c(OC)c(=O)c2c(O)c1OC`, for which the GI50 in the test with CCRF-CEM leukemia was 15.2 µM; in the test on EKVX NSCLC it was 97 µM; with HOP-62 NSCLC, 42.3 µM; in the test with HOP-92 NSCLC, 43.9 µM; in the test with HT29 colon it was 31.1 µM; in the test on K-562 leukemia, 42.8 µM. The GI50 with OVCAR-3 ovarian was greater than 100 µM; in the test on RXF 393 renal it was 29 µM; in the test with SW-620 colon, greater than 100 µM; in the test on UACC-257 melanoma, greater than 100 µM. Moreover, the TGI in the test with CCRF-CEM leukemia, with EKVX NSCLC, with HOP-62 NSCLC, in the test with HOP-92 NSCLC, with HT29 colon and in the test with K-562 leukemia was greater than 100 µM each time. Also, the TGI with OVCAR-3 ovarian, with RXF 393 renal, in the test on SW-620 colon and in the test with UACC-257 melanoma was greater than 100 µM throughout.

As to `COc1ccc(S(=O)(=O)c2ccccc2[N+](=O)[O-])cc1`, the TGI with CCRF-CEM leukemia, with EKVX NSCLC, with HOP-62 NSCLC, in the test with HOP-92 NSCLC, in the test on HT29 colon and in the test on K-562 leukemia was greater than 100 µM throughout. For the same compound, the TGI with OVCAR-3 ovarian, in the test with RXF 393 renal, in the test with SW-620 colon and in the test with UACC-257 melanoma was greater than 100 µM each time.

Regarding `CCOC(=O)c1ccc(N[C@@H]2c3cc4c(cc3C(c3cc(OC)c(O)c(OC)c3)[C@H]3C(=O)OCC32)OCO4)cc1O` (some centres undefined), the TGI in the test with CCRF-CEM leukemia is greater than 100 µM; in the test with EKVX NSCLC, greater than 22.6 µM; in the test on HOP-62 NSCLC it was 1.56 µM; in the test on HOP-92 NSCLC it was 7.38 µM; in the test on HT29 colon, 1.32 µM; in the test on OVCAR-3 ovarian it was 8.75 µM. Moreover, the TGI was 6.77 µM with RXF 393 renal, greater than 48.2 µM with SW-620 colon and greater than 100 µM in the test with UACC-257 melanoma.

With `COCCCNc1nc(N)c(C#N)c(C#N)c1C#N`, the TGI with CCRF-CEM leukemia was 6.67 µM; with EKVX NSCLC, greater than 10 µM; in the test with HOP-62 NSCLC, greater than 10 µM; with HT29 colon, greater than 10 µM; in the test on K-562 leukemia, greater than 10 µM; in the test on OVCAR-3 ovarian, greater than 10 µM. The TGI with RXF 393 renal and in the test with SW-620 colon was greater than 10 µM each time.

Take `Nc1nc([O-])c2c(n1)[n+](C1OC(CO)C(O)C1O)cn2CCO` (centres undefined): the TGI with CCRF-CEM leukemia, with EKVX NSCLC, with HOP-62 NSCLC, with HOP-92 NSCLC, in the test with HT29 colon and in the test on K-562 leukemia was greater than 100 µM each time. The TGI in the test with OVCAR-3 ovarian, in the test on RXF 393 renal, in the test with SW-620 colon and with UACC-257 melanoma was greater than 100 µM in each case.

Turning to `Clc1ccc(C[P+](c2ccccc2)(c2ccccc2)c2ccccc2)c(Cl)c1`, the TGI with CCRF-CEM leukemia amounted to 21.3 µM; in the test on EKVX NSCLC, 31.4 µM; in the test with HOP-62 NSCLC, 27.9 µM; in the test on HOP-92 NSCLC, 5.76 µM; in the test on HT29 colon it was 10.4 µM; with OVCAR-3 ovarian it was 13.8 µM. Besides, the values for the TGI in the test on RXF 393 renal, in the test on SW-620 colon and in the test with UACC-257 melanoma were 8.67 µM, 21.4 µM and 7.64 µM, respectively.

Consider `CCOC(=O)CNC(=O)N(CC)C12CC3CC(CC(C3)C1)C2`, for which the TGI in the test on CCRF-CEM leukemia stood at 388 µM; in the test on EKVX NSCLC, 358 µM; in the test with HOP-62 NSCLC it was 266 µM; in the test with HOP-92 NSCLC it was 222 µM; with HT29 colon, 204 µM; in the test with K-562 leukemia it was 409 µM. The TGI with OVCAR-3 ovarian is 287 µM; in the test with RXF 393 renal, 388 µM; in the test on SW-620 colon, 297 µM; with UACC-257 melanoma, 322 µM.

Turning to `C[Si](C)(C)OC1CC(=O)OC1n1cc(F)c(=O)[nH]c1=O` (centres undefined), the TGI with CCRF-CEM leukemia was greater than 96.4 µM; with EKVX NSCLC, greater than 100 µM; in the test on HOP-62 NSCLC, greater than 100 µM; with HT29 colon, greater than 100 µM; in the test on K-562 leukemia it was greater than 100 µM; in the test on OVCAR-3 ovarian, greater than 100 µM. Moreover, the results for the TGI in the test with RXF 393 renal, in the test on SW-620 colon and in the test on UACC-257 melanoma were 98.4 µM, greater than 56 µM and greater than 100 µM, respectively.

Take `CN(C)CC1CCCC(CN(C)C)C1OC(=O)c1ccccc1` (centres undefined): the TGI with CCRF-CEM leukemia, in the test on EKVX NSCLC, in the test with HOP-62 NSCLC, in the test with HOP-92 NSCLC, in the test with HT29 colon and in the test with K-562 leukemia was greater than 100 µM in each case. Further, the TGI in the test on OVCAR-3 ovarian, in the test with RXF 393 renal, with SW-620 colon and in the test with UACC-257 melanoma was greater than 100 µM throughout.
